# Source: ChEMBL document CHEMBL5131466, “Discovery and development of labdane-oxindole hybrids as small-molecule inhibitors against chikungunya virus infection” (Eur J Med Chem, 2022)
# What was measured:
# [1] = Cytotoxicity against human HeLa CCL2 cells assessed as reduction in cell viability measured after 24 hrs by Alamar blue assay; assay type: functional
# [2] = Selectivity index, ratio of CC50 for cytotoxicity against human HeLa CCL2 cells to EC50 for antiviral activity against CHIKV 122508 infected in human HeLa CCL2 cells; assay type: toxicity, cell-based; details: read-out: Ratio CC50/EC50
# [3] = tested on: Chikungunya virus; experiment: Antiviral activity against CHIKV 122508 infected in […] BHK-21 cells assessed as reduction in viral titer at MOI of 1 measured after 24 hpi by viral plaque assay; assay type: functional, organism-based; details: Chikungunya virus, 122508, BHK-21
# [4] = tested on: Chikungunya virus; experiment: Antiviral activity against CHIKV 122508 infected in human HeLa CCL2 cells assessed as inhibition of viral replication at MOI of 1 at 80 uM incubated for 24 hpi by viral plaque assay; assay type: functional; parameters: unit not given here; details: time 24 hrs
# [5] = tested on: Chikungunya virus; experiment: Antiviral activity against CHIKV 122508 infected in human HeLa CCL2 cells assessed as inhibition of viral replication at MOI of 1 at 10 uM incubated for 24 hpi by viral plaque assay; assay type: functional; parameters: unit not given here; details: time 24 hrs
# [6] = tested on: Chikungunya virus; experiment: Antiviral activity against CHIKV 122508 infected in human HeLa CCL2 cells assessed as inhibition of viral replication at MOI of 1 at 100 uM incubated for 24 hpi by viral plaque assay; assay type: functional; parameters: unit not given here; details: time 24 hrs
Compound,CC50 [1] [µM],selectivity ratio [2],EC50 [3] [µM],Activity [4],Activity [5],Activity [6]
C=C1CC[C@H]2C(C)(C)CCC[C@]2(C)[C@H]1C/C=C1\C(=O)Nc2c1cccc2C(F)(F)F,> 100,> 11,8.77,–,–,–
C=C1[C@H](O)C[C@H]2C(C)(C)CCC[C@]2(C)[C@H]1C/C=C1/C(=O)Nc2ccccc21,15,12,1.29,–,–,–
C=C1CC[C@H]2C(C)(C)CCC[C@]2(C)[C@H]1C/C=C1/C(=O)Nc2c(C)cccc21,142,230,0.62,1.3,–,–
C=C1CC[C@H]2C(C)(C)CCC[C@]2(C)[C@H]1C/C=C1/C(=O)Nc2cc(Cl)ccc21,5.7,–,–,–,–,–
C=C1CC[C@H]2C(C)(C)CCC[C@]2(C)[C@H]1C/C=C1/C(=O)Nc2c1cccc2C(F)(F)F,> 100,> 61,1.64,–,–,–
C=C1[C@H](O)C[C@H]2C(C)(C)CCC[C@]2(C)[C@H]1C/C=C1\C(=O)Nc2ccccc21,20,14,1.41,–,–,–
C=C1CC[C@@H]2[C@](C)(CO)[C@H](O)CC[C@@]2(C)[C@@H]1C/C=C1\C(=O)N(C(C)=O)c2ccccc21,> 100,–,–,–,–,–
C=C1CC[C@@H]2[C@](C)(COC(C)=O)[C@H](OC(C)=O)CC[C@@]2(C)[C@@H]1C/C=C1/C(=O)Nc2ccccc21,> 100,> 14,7.4,–,–,–
C=C1CC[C@H]2C(C)(C)CCC[C@]2(C)[C@H]1C/C=C1\C(=O)Nc2cc(C(F)(F)F)ccc21,52.8,17,3.07,–,–,–
CC1=CC[C@H]2C(C)(C)CCC[C@]2(C)[C@H]1C/C=C1\C(=O)Nc2c(Cl)cccc21,194,21,9.35,–,–,–
C=C1CC[C@H]2C(C)(C)CCC[C@]2(C)[C@H]1C/C=C1/C(=O)Nc2ccc(C(F)(F)F)cc21,6.66,–,–,–,–,–
C=C1CC[C@H]2C(C)(C)CCC[C@]2(C)[C@H]1C/C=C1\C(=O)Nc2ccc(F)cc21,15.7,2.4,6.62,–,–,–
C=C1CC[C@H]2C(C)(C)CCC[C@]2(C)[C@H]1C/C=C1\C(=O)Nc2c(OC)cccc21,23.4,780,0.03,–,1.5,–
C=C1CC[C@H]2C(C)(C)CCC[C@]2(C)[C@H]1C/C=C1/C(=O)Nc2c(OC)cccc21,90.2,602,0.15,2.6,–,–
C=C1CC[C@H]2C(C)(C)CCC[C@]2(C)[C@H]1C/C=C1\C(=O)Nc2ccc(Cl)cc21,18.3,4.5,4.1,–,–,–
C=C1CC[C@H]2C(C)(C)CCC[C@]2(C)[C@H]1C/C=C1\C(=O)Nc2c(F)cccc21,26.9,336,0.08,–,2,–
C=C1CC[C@H]2C(C)(C)CCC[C@]2(C)[C@H]1C/C=C1/C(=O)Nc2c(Cl)cc(F)cc21,134,1680,0.08,2.7,–,–
C=C1CC[C@H]2C(C)(C)CCC[C@]2(C)[C@H]1C/C=C1\C(=O)Nc2c(Cl)cc(F)cc21,> 100,> 1350,0.07,–,–,2.6
C=C1CC[C@H]2C(C)(C)CCC[C@]2(C)[C@H]1C/C=C1\C(=O)Nc2c(Cl)cccc21,59.7,5.7,10.5,–,–,–
C=C1[C@H](O)C[C@H]2C(C)(C)CCC[C@]2(C)[C@H]1C/C=C1\C(=O)Nc2c(Cl)cccc21,13.4,6700,0.002,–,2.1,–
C=C1CC[C@H]2C(C)(C)CCC[C@]2(C)[C@H]1C/C=C1\C(=O)Nc2c(C)cccc21,> 100,> 667,0.15,–,–,2.8
C=C1CC[C@@H]2[C@](C)(CO)[C@H](O)CC[C@@]2(C)[C@@H]1CCC1C(=O)Nc2ccccc21 (some centres not stated),> 100,–,–,–,–,–
C=C1CC[C@H]2C(C)(C)CCC[C@]2(C)[C@H]1C/C=C1/C(=O)NC(=O)c2ccccc21,50.5,15,3.46,–,–,–
C=C1CC[C@@H]2[C@](C)(CO)[C@H](O)CC[C@@]2(C)[C@@H]1C/C=C1\C(=O)N(C)c2ccccc21,> 100,–,–,–,–,–
C=C1CC[C@H]2C(C)(C)CCC[C@]2(C)[C@H]1C/C=C1\C(=O)Nc2ccccc21,> 100,> 14,7.23,–,–,–
C=C1CC[C@H]2C(C)(C)CCC[C@]2(C)[C@H]1C/C=C1\C(=O)Nc2cc(Br)ccc21,19.6,2.6,7.5,–,–,–

Compound,CC50 [1] [µM],selectivity ratio [2],EC50 [3] [µM],Activity [4],Activity [5],Activity [6]
C=C1CC[C@H]2C(C)(C)CCC[C@]2(C)[C@H]1C/C=C1\C(=O)Nc2ccc(C(F)(F)F)cc21,> 16.2,> 6.1,2.63,–,–,–
C=C1CC[C@H]2C(C)(C)CCC[C@]2(C)[C@H]1C/C=C1\C(=O)Nc2cc(C)ccc21,37.2,3.2,11.6,–,–,–
C=C1CC[C@@H]2[C@](C)(CO)[C@H](O)CC[C@@]2(C)[C@@H]1C/C=C1/C(=O)N(C(C)=O)c2ccccc21,> 100,–,–,–,–,–
C=C1CC[C@H]2C(C)(C)CCC[C@]2(C)[C@H]1C/C=C1/C(=O)Nc2ccc(Br)cc21,77.2,10,7.4,–,–,–
CC1=CC[C@H]2C(C)(C)CCC[C@]2(C)[C@H]1C/C=C1\C(=O)Nc2ccccc21,17,3,5.69,–,–,–
C=C1CC[C@H]2C(C)(C)CCC[C@]2(C)[C@H]1C/C=C1\C(=O)NC(=O)c2ccccc21,> 100,> 347,0.29,–,–,3.8
C=C1CC[C@H]2C(C)(C)CCC[C@]2(C)[C@H]1C/C=C1/C(=O)Nc2cc(F)ccc21,9,20,0.46,–,–,–
C=C1CC[C@H]2C(C)(C)CCC[C@]2(C)[C@H]1C/C=C1\C(=O)Nc2c(Br)cccc21,> 100,> 90,1.12,–,–,2.3
C=C1CC[C@H]2C(C)(C)CCC[C@]2(C)[C@H]1C/C=C1\C(=O)Nc2cccc(C)c21,49.9,69,0.72,–,–,–
C=C1CC[C@H]2C(C)(C)CCC[C@]2(C)[C@H]1C/C=C1\C(=O)Nc2cc(Cl)ccc21,15.6,–,–,–,–,–
C=C1CC[C@H]2C(C)(C)CCC[C@]2(C)[C@H]1C/C=C1/C(=O)Nc2ccc(C)cc21,15.2,758,0.02,–,3.7,–
C=C1CC[C@@H]2[C@](C)(CO)[C@H](O)CC[C@@]2(C)[C@@H]1C/C=C1\C(=O)Nc2ccccc21,> 100,> 17,5.85,–,–,–
CC1=CC[C@H]2C(C)(C)CCC[C@]2(C)[C@H]1C/C=C1/C(=O)Nc2ccccc21,18.6,5.8,3.22,–,–,–
C=C1CC[C@H]2C(C)(C)CCC[C@]2(C)[C@H]1C/C=C1/C(=O)Nc2cc(C(F)(F)F)ccc21,77.2,10,7.41,–,–,–
C=C1CC[C@H]2C(C)(C)CCC[C@]2(C)[C@H]1C/C=C1/C(=O)Nc2ccccc21,41.6,15,2.8,–,–,–
C=C1CC[C@H]2C(C)(C)CCC[C@]2(C)[C@H]1C/C=C1\C(=O)Nc2ccc(Br)cc21,20.6,11,1.8,–,–,–
C=C1CC[C@@H]2[C@](C)(CO)[C@H](O)CC[C@@]2(C)[C@@H]1C/C=C1\SC(=S)NC1=O,> 100,–,–,–,–,–
CC1=CC[C@H]2C(C)(C)CCC[C@]2(C)[C@H]1C/C=C1/C(=O)Nc2c(Cl)cccc21,> 100,1.5,6.56,–,–,–
C=C1CC[C@H]2C(C)(C)CCC[C@]2(C)[C@H]1C/C=C1/C(=O)Nc2cc(Br)ccc21,8.3,–,–,–,–,–
C=C1CC[C@H]2C(C)(C)CCC[C@]2(C)[C@H]1C/C=C1\C(=O)Nc2cccc(Br)c21,27.1,62,0.44,–,–,–
C=C1CC[C@@H]2[C@](C)(COC(C)=O)[C@H](OC(C)=O)CC[C@@]2(C)[C@@H]1C/C=C1\C(=O)Nc2ccccc21,> 100,> 12,8.3,–,–,–
C=C1CC[C@H]2C(C)(C)CCC[C@]2(C)[C@H]1C/C=C1/C(=O)Nc2ccc(Cl)cc21,36.1,27,1.3,–,–,–
C=C1CC[C@H]2C(C)(C)CCC[C@]2(C)[C@H]1C/C=C1\C(=O)Nc2cccc(Cl)c21,37.2,6.8,5.4,–,–,–
C=C1CC[C@H]2C(C)(C)CCC[C@]2(C)[C@H]1C/C=C1\C(=O)Nc2cc(F)ccc21,14.2,67,0.21,–,–,–
C=C1CC[C@@H]2[C@](C)(CO)[C@H](O)CC[C@@]2(C)[C@@H]1C/C=C1/C(=O)N(C)c2ccccc21,> 100,–,–,–,–,–
C=C1CC[C@H]2C(C)(C)CCC[C@]2(C)[C@H]1C/C=C1/C(=O)Nc2c(Br)cccc21,> 100,> 79,1.27,–,–,–
